The text below walks through data of patent US9321773B2, “Compounds” (Respivert Ltd, priority 2009, dated 2016).

Like-named read-outs stand apart in the source and are kept apart here.

In one series the target is recombinant PI3 kinase δ (Homo sapiens (Human), UniProt O00329). Put plainly: Enzyme Inhibition Assay (HTRF PI3K enzyme assay, TR-FRET). It counts as biochemical. The essentials: (§1)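 Recombinant PI3Kα, δ or γ incubated with PIP2 substrate and compound for 2 hr at RT. Stop solution with biotin-PIP3 and GST-GRP1 PH domain/Eu-anti-GST/SA-APC detection mix added, then 15-18 hr at RT. PIP3 formed reduces the TR-FRET signal.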
Chain of recombinant PI3 kinase δ (O00329 whole entry, the tested form may be a part): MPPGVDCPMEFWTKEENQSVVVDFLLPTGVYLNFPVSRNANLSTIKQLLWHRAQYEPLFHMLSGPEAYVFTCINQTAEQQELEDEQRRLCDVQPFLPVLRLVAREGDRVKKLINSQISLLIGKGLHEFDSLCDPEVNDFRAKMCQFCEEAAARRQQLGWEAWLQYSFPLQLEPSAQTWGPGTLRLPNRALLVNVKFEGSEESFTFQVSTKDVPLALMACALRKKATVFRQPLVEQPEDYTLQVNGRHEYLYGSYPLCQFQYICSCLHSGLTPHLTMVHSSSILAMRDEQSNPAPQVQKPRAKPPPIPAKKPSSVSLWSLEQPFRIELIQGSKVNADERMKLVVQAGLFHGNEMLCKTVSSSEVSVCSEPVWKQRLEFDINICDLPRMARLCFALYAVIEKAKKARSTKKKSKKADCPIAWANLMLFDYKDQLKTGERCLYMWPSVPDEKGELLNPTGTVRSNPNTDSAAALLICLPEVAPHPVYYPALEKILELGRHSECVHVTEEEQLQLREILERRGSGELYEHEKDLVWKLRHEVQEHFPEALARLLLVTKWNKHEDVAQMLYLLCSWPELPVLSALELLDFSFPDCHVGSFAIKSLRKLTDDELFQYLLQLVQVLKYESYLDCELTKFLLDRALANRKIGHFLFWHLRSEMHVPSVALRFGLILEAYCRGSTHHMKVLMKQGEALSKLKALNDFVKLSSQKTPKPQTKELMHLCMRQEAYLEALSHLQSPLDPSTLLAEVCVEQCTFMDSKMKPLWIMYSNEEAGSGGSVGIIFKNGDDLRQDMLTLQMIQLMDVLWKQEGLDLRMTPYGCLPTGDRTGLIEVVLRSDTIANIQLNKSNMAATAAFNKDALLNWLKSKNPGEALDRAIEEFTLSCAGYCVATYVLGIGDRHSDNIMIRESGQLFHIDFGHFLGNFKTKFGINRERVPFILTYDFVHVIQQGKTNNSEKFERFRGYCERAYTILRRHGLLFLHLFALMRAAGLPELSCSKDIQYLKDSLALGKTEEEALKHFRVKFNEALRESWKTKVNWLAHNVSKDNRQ
Chain of recombinant PI3 kinase δ (P27986 whole entry partner, the tested form may be a part): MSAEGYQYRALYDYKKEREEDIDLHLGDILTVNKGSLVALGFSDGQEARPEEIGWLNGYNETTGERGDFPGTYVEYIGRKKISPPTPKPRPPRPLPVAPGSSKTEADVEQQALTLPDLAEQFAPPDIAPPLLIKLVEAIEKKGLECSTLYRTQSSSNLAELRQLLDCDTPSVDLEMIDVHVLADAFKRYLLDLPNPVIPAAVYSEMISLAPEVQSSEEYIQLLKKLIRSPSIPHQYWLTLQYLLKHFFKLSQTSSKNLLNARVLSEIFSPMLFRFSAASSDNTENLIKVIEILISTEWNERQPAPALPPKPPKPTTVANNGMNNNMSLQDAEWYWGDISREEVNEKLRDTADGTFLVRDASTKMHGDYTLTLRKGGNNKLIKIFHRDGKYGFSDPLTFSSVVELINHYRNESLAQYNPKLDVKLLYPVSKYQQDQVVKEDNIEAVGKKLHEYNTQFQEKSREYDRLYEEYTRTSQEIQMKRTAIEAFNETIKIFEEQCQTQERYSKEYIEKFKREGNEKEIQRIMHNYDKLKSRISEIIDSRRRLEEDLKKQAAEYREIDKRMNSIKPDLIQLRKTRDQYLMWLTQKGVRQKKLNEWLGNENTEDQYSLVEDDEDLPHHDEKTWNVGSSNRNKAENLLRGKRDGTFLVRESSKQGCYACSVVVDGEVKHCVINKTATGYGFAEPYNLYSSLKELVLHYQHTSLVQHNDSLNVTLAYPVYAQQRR
In general terms: In TR-FRET formats the signal depends on donor and acceptor labels being close together.

For the next series, the target named is recombinant PI3 kinase γ (Homo sapiens (Human), UniProt P48736). Described as above. It counts as biochemical. In a few lines: as §1
Chain of recombinant PI3 kinase γ (P48736 whole entry): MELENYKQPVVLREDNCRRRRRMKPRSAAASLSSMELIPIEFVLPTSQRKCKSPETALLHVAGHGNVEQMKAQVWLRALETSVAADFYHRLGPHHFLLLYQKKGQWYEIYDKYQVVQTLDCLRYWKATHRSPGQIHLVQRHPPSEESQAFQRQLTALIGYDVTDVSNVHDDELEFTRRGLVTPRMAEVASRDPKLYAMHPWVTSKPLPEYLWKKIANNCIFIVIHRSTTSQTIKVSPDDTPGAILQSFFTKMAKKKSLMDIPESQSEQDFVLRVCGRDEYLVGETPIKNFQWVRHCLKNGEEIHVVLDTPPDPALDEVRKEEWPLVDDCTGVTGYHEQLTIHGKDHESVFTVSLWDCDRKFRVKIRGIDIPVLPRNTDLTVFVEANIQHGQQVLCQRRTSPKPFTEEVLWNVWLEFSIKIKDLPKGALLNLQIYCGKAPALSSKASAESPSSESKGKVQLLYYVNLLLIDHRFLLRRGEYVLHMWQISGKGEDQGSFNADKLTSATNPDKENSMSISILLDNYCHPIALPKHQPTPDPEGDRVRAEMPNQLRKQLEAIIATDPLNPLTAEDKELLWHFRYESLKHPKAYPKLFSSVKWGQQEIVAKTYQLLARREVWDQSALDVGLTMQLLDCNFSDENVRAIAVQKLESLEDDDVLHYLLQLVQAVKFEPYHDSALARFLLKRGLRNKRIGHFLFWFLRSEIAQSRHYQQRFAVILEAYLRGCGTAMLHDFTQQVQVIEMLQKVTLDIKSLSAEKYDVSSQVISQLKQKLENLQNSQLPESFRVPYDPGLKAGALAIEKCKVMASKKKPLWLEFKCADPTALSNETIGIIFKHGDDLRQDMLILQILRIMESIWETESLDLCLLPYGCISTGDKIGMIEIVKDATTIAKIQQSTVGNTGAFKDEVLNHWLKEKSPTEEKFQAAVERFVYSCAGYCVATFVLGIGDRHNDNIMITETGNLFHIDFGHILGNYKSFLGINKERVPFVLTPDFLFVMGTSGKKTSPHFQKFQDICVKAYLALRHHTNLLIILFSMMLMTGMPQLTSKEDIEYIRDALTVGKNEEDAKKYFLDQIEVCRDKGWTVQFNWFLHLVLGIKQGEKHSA
The target of a further series is recombinant PI3 kinase α (Homo sapiens (Human), UniProt P42336). Described as above. In kind it is biochemical. In a few lines:
as §1

In series [1] the test system is PMA-differentiated U937 cells. Put plainly: MTT Assay (cell viability). In kind it is cell-based, Human. Particulars: percentage loss of cell viability; for Cell Viability MTT Assay in D-U937 cells at 4 hr: 4 hr in 5% FCS; for Cell Viability MTT Assay in D-U937 cells at 24 hr: 24 hr in 10% FCS. The essentials:
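Differentiated U937 cells treated with compound for 4 hr (5% FCS) or 24 hr (10% FCS), then given MTT for 1 hr; formazan dissolved in DMSO and absorbance read at 550 nm. Viability loss expressed as % versus 0.5% DMSO vehicle.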

The subject of series [2] is H2O2 induced pAkt in D-U937 cells. The series can be described thus: PI3Kδ Cell Based Assay (H2O2 induced pAkt). Particulars: Homo sapiens, dU937. The essentials: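 U937 cells differentiated to macrophage-type cells with PMA (100 ng/mL, 48 to 72 hr), then stimulated with H2O2. pAkt and total Akt detected by antibody-based immunoassay. Ratio of pAkt to total Akt signal used; IC50 from concentration-response curves of serially diluted compounds.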

Where [3] appears, read: activity range, read-out: PI3 Kinase Inhibition IC50 values at stated Isozyme δ.
[4] abbreviates: activity range, read-out: PI3 Kinase Inhibition IC50 values at stated Isozyme γ.
The mark [5] stands for this setting: activity range, read-out: PI3 Kinase Inhibition IC50 values at stated Isozyme α.
The mark [6] stands for this setting: activity range, D-U937 cells, read-out: Cellular Activity IC50 values (H2O2 induced pAkt D-U937 Cells).

Chain of recombinant PI3 kinase α (P42336 whole entry): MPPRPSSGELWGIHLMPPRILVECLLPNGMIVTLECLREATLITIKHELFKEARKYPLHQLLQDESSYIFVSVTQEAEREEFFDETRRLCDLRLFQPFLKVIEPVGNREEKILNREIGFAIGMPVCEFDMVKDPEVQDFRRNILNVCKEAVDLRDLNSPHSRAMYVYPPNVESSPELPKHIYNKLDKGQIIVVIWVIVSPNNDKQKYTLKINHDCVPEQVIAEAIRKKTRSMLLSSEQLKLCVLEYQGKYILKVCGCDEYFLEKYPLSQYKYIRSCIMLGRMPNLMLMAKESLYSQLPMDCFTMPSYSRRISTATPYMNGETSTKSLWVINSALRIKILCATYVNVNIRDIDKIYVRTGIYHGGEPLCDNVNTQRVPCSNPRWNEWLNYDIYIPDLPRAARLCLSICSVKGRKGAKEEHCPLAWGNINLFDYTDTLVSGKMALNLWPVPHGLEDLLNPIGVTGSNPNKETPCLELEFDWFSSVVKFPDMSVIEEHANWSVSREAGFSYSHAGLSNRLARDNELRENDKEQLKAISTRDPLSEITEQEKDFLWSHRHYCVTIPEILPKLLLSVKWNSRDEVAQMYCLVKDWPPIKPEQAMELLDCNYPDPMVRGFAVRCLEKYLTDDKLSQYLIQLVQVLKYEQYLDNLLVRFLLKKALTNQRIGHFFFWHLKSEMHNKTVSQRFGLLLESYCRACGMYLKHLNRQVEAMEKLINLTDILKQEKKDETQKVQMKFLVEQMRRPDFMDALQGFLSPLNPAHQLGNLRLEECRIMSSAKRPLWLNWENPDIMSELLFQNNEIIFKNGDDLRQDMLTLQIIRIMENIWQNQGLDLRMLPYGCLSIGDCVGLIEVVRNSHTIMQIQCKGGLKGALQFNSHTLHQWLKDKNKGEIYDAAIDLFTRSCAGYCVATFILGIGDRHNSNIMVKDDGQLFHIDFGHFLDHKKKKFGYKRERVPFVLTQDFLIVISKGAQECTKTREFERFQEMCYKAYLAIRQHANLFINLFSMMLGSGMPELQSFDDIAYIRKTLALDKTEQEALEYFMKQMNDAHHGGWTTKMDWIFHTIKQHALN
Chain of recombinant PI3 kinase α (P27986 whole entry partner): as the sequence (P27986 whole entry partner, the tested form may be a part) above

Consider `N#Cc1cccc(Cn2c(Cn3nc(-c4cccc(O)c4)c4c(N)ncnc43)nc3cccc(C#CCOCCOCCO)c3c2=O)c1` [Example 6, 3-((2-((4-Amino-3-(3-hydroxyphenyl)-1H-pyrazolo[3,4-d]pyrimidin-1-yl)methyl)-5-(3-(2-(2-hydroxyethoxy)ethoxy)prop-1-yn-1-yl)-4-oxoquinazolin-3(4H)-yl)methyl)benzonitrile], for which the IC50 – broadly, the point on the concentration scale where inhibition reaches its midpoint – is less than 50 nM on recombinant PI3 kinase δ (setting [3]), 50 to 1000 nM on recombinant PI3 kinase γ (setting [4]), 50 to 1000 nM at recombinant PI3 kinase α (setting [5]) and less than 10 nM in series [2] (setting [6]). Further, the “Cell Viability MTT Assay in D-U937 cells at 4 hr” value in series [1] is recorded as “− (− <30%)”. Also, the “Cell Viability MTT Assay in D-U937 cells at 24 hr” value in series [1] is on record as “− (− <30%)”.
As to `NC(=O)NCC#Cc1cccc2nc(Cn3nc(-c4ccc(O)cc4)c4c(N)ncnc43)n(Cc3ccccc3Cl)c(=O)c12` [Example 49, 1-(3-(2-((4-Amino-3-(4-hydroxyphenyl)-1H-pyrazolo[3,4-d]pyrimidin-1-yl)methyl)-3-(2-chlorobenzyl)-4-oxo-3,4-dihydroquinazolin-5-yl)prop-2-ynyl)urea], the IC50 on recombinant PI3 kinase δ (setting [3]) is less than 50 nM; on recombinant PI3 kinase γ (setting [4]), 50 to 1000 nM; on recombinant PI3 kinase α (setting [5]) it was 50 to 1000 nM; in series [2] (setting [6]) it was less than 10 nM. For the same compound, in series [1], the “Cell Viability MTT Assay in D-U937 cells at 4 hr” value is on record as “− (− <30%)”. The “Cell Viability MTT Assay in D-U937 cells at 24 hr” value in series [1] is given as “− (− <30%)”.
As for `COCCN1CCN(C(=O)CCCC#Cc2cccc3nc(Cn4nc(-c5ccc(O)cc5)c5c(N)ncnc54)n(Cc4ccccc4Cl)c(=O)c23)CC1` [Example 77, 2-((4-Amino-3-(4-hydroxyphenyl)-1H-pyrazolo[3,4-d]pyrimidin-1-yl)methyl)-3-(2-chlorobenzyl)-5-(6-(4-(2-methoxyethyl)piperazin-1-yl)-6-oxohex-1-ynyl) quinazolin-4(3H)-one], the half-inhibitory concentration (IC50) at recombinant PI3 kinase δ (setting [3]) was less than 50 nM; at recombinant PI3 kinase γ (setting [4]) it was less than 50 nM; on recombinant PI3 kinase α (setting [5]), 50 to 1000 nM; in series [2] (setting [6]) it was less than 10 nM. In addition, the “Cell Viability MTT Assay in D-U937 cells at 4 hr” value in series [1] is “− (− <30%)”. The “Cell Viability MTT Assay in D-U937 cells at 24 hr” value in series [1] is “− (− <30%)”.
`COCC#Cc1cccc2nc(Cn3nc(-c4ccc(O)cc4)c4c(N)ncnc43)n(Cc3ccccc3Cl)c(=O)c12` [Example 28, 2-((4-Amino-3-(4-hydroxyphenyl)-1H-pyrazolo[3,4-d]pyrimidin-1-yl)methyl)-3-(2-chlorobenzyl)-5-(3-methoxyprop-1-ynyl)quinazolin-4(3H)-one]: the IC50 at recombinant PI3 kinase δ (setting [3]) was less than 50 nM; at recombinant PI3 kinase γ (setting [4]) it was 50 to 1000 nM; on recombinant PI3 kinase α (setting [5]), 50 to 1000 nM; in series [2] (setting [6]), less than 10 nM. The “Cell Viability MTT Assay in D-U937 cells at 4 hr” value in series [1] is “− (− <30%)”. Further, the “Cell Viability MTT Assay in D-U937 cells at 24 hr” value in series [1] is listed as “− (− <30%)”.
For `Nc1ncnc2c1c(-c1ccc(O)cc1)nn2Cc1nc2cccc(C#CCCCC(=O)N3CCCCC3)c2c(=O)n1Cc1ccccc1Cl` [Example 58, 2-((4-Amino-3-(4-hydroxyphenyl)-1H-pyrazolo[3,4-d]pyrimidin-1-yl)methyl)-3-(2-chlorobenzyl)-5-(6-oxo 6-(piperidin-1-yl)hex-1-yn-1-yl)quinazolin-4(3H)-one], the IC50 at recombinant PI3 kinase δ (setting [3]) is less than 50 nM; at recombinant PI3 kinase γ (setting [4]), less than 50 nM; on recombinant PI3 kinase α (setting [5]), 50 to 1000 nM; in series [2] (setting [6]), less than 10 nM. In addition, the “Cell Viability MTT Assay in D-U937 cells at 4 hr” value in series [1] is listed as “− (− <30%)”. In addition, the “Cell Viability MTT Assay in D-U937 cells at 24 hr” value in series [1] was “− (− <30%)”.
Turning to `COc1cc(Cn2c(Cn3nc(-c4ccc(O)cc4)c4c(N)ncnc43)nc3cccc(C#CCCCC(=O)N4CCOCC4)c3c2=O)cc(C(F)(F)F)c1` [Example 62, 2-((4-Amino-3-(4-hydroxyphenyl)-1H-pyrazolo[3,4-d]pyrimidin-1-yl)methyl)-3-(3-methoxy-5-(trifluoromethyl)benzyl)-5-(6-morpholino-6-oxohex-1-yn-1-yl)quinazolin-4(3H)-one], the IC50 on recombinant PI3 kinase δ (setting [3]) is less than 50 nM; at recombinant PI3 kinase γ (setting [4]), less than 50 nM; on recombinant PI3 kinase α (setting [5]), 50 to 1000 nM; in series [2] (setting [6]), less than 10 nM. Further, the “Cell Viability MTT Assay in D-U937 cells at 4 hr” value in series [1] was “− (− <30%)”. In addition, the “Cell Viability MTT Assay in D-U937 cells at 24 hr” value in series [1] was “− (− <30%)”.
For the compound `Nc1ncnc2c1c(-c1ccc(O)cc1)nn2Cc1nc2cccc(C#CCCCNC3CCCC3)c2c(=O)n1Cc1ccccc1Cl` [Example 7, 2-((4-Amino-3-(4-hydroxyphenyl)-1H-pyrazolo[3,4-d]pyrimidin-1-yl)methyl)-3-(2-chlorobenzyl)-5-(5-(cyclopentylamino)pent-1-ynyl)quinazolin-4(3H)-one], the IC50 was less than 50 nM on recombinant PI3 kinase δ (setting [3]), 50 to 1000 nM at recombinant PI3 kinase γ (setting [4]), 50 to 1000 nM on recombinant PI3 kinase α (setting [5]) and less than 10 nM in series [2] (setting [6]). In addition, the “Cell Viability MTT Assay in D-U937 cells at 4 hr” value in series [1] was “− (− <30%)”. Also, the “Cell Viability MTT Assay in D-U937 cells at 24 hr” value in series [1] is given as “− (− <30%)”.
As for `CN(C)C1CCN(C(=O)CCCC#Cc2cccc3nc(Cn4nc(-c5ccc(O)cc5)c5c(N)ncnc54)n(Cc4ccccc4Cl)c(=O)c23)C1` (stereo not shown) [Example 91, 2-((4-Amino-3-(4-hydroxyphenyl)-1H-pyrazolo[3,4-d]pyrimidin-1-yl)methyl)-3-(2-chlorobenzyl)-5-(6-(3-(dimethylamino)pyrrolidin-1-yl)-6-oxohex-1-ynyl) quinazolin-4(3H)-one], the IC50 is less than 50 nM at recombinant PI3 kinase δ (setting [3]), less than 50 nM on recombinant PI3 kinase γ (setting [4]), 50 to 1000 nM on recombinant PI3 kinase α (setting [5]) and less than 10 nM in series [2] (setting [6]). In addition, in series [1], the “Cell Viability MTT Assay in D-U937 cells at 4 hr” value was “− (− <30%)”. In series [1], the “Cell Viability MTT Assay in D-U937 cells at 24 hr” value was “− (− <30%)”.
As to `C#Cc1cccc2nc(Cn3nc(-c4ccc(O)cc4)c4c(N)ncnc43)n(Cc3ccc(OC)cc3F)c(=O)c12` [Example 48, 2-((4-Amino-3-(4-hydroxyphenyl)-1H-pyrazolo[3,4-d]pyrimidin-1-yl)methyl)-5-ethynyl-3-(2-fluoro-4-methoxybenzyl)quinazolin-4(3H)-one], the IC50 at recombinant PI3 kinase δ (setting [3]) was less than 50 nM; at recombinant PI3 kinase γ (setting [4]) it was 50 to 1000 nM; on recombinant PI3 kinase α (setting [5]), 50 to 1000 nM; in series [2] (setting [6]), less than 10 nM. In addition, in series [1], the “Cell Viability MTT Assay in D-U937 cells at 4 hr” value is listed as “− (− <30%)”. In series [1], the “Cell Viability MTT Assay in D-U937 cells at 24 hr” value is given as “− (− <30%)”.
Consider `CN(C)C1CCN(C(=O)CCCC#Cc2cccc3nc(Cn4nc(-c5ccc(O)cc5)c5c(N)ncnc54)n(Cc4ccccc4Cl)c(=O)c23)CC1` [Example 81, 2-((4-Amino-3-(4-hydroxyphenyl)-1H-pyrazolo[3,4-d]pyrimidin-1-yl)methyl)-3-(2-chlorobenzyl)-5-(6-(4-(dimethylamino)piperidin-1-yl)-6-oxohex-1-ynyl) quinazolin-4(3H)-one], for which the IC50 on recombinant PI3 kinase δ (setting [3]) is less than 50 nM; on recombinant PI3 kinase γ (setting [4]), 50 to 1000 nM; on recombinant PI3 kinase α (setting [5]) it was 50 to 1000 nM; in series [2] (setting [6]) it was less than 10 nM. For the same compound, the “Cell Viability MTT Assay in D-U937 cells at 4 hr” value in series [1] is given as “− (− <30%)”. For the same compound, in series [1], the “Cell Viability MTT Assay in D-U937 cells at 24 hr” value was “− (− <30%)”.
With `CC(C)NC(=O)CCCC#Cc1cccc2nc(Cn3nc(-c4ccc(O)cc4)c4c(N)ncnc43)n(Cc3ccccc3Cl)c(=O)c12` [Example 86, 6-(2-((4-Amino-3-(4-hydroxyphenyl)-1H-pyrazolo[3,4-d]pyrimidin-1-yl)methyl)-3-(2-chlorobenzyl)-4-oxo-3,4-dihydroquinazolin-5-yl)-N-isopropylhex-5-ynamide], the IC50 at recombinant PI3 kinase δ (setting [3]) is less than 50 nM; on recombinant PI3 kinase δ (read-out: PI3 Kinase Inhibition IC50 values at stated Isozyme (nM) δ), 36 nM; at recombinant PI3 kinase γ (setting [4]), less than 50 nM; on recombinant PI3 kinase γ (read-out: PI3 Kinase Inhibition IC50 values at stated Isozyme (nM) γ), 22 nM; at recombinant PI3 kinase α (setting [5]) it was less than 50 nM; at recombinant PI3 kinase α (read-out: PI3 Kinase Inhibition IC50 values at stated Isozyme (nM) α) it was 27 nM. Moreover, the IC50 in series [2] (setting [6]) was less than 10 nM; in series [2] (read-out: Cellular Activity IC50 values (H2O2 induced pAkt (nM) D-U937 Cells)), 0.41 nM. For the same compound, the “Cell Viability MTT Assay in D-U937 cells at 4 hr” value in series [1] is “− (− <30%)”. Further, the “Cell Viability MTT Assay in D-U937 cells at 24 hr” value in series [1] is “− (− <30%)”.
Regarding `Cn1cc(Cn2c(Cn3nc(-c4cccc(O)c4)c4c(N)ncnc43)nc3cccc(C#CCCCC(=O)N4CCOCC4)c3c2=O)cn1` [Example 66], the IC50 on recombinant PI3 kinase δ (setting [3]) is less than 50 nM; on recombinant PI3 kinase γ (setting [4]), less than 50 nM; at recombinant PI3 kinase α (setting [5]), 50 to 1000 nM; in series [2] (setting [6]) it was less than 10 nM. The “Cell Viability MTT Assay in D-U937 cells at 4 hr” value in series [1] is on record as “− (− <30%)”. In series [1], the “Cell Viability MTT Assay in D-U937 cells at 24 hr” value is on record as “+ (+ >30%)”.
Take `C#Cc1cccc2nc(Cn3nc(-c4ccc(O)cc4)c4c(N)ncnc43)n(Cc3ccc(C(F)(F)F)cc3)c(=O)c12` [Example 29, 2-((4-Amino-3-(4-hydroxyphenyl)-1H-pyrazolo[3,4-d]pyrimidin-1-yl)methyl)-5-ethynyl-3-(4-(trifluoromethyl)benzyl)quinazolin-4(3H)-one]: the 50% inhibitory concentration (IC50) is less than 50 nM on recombinant PI3 kinase δ (setting [3]), 50 to 1000 nM at recombinant PI3 kinase γ (setting [4]), 50 to 1000 nM on recombinant PI3 kinase α (setting [5]) and less than 10 nM in series [2] (setting [6]). Also, the “Cell Viability MTT Assay in D-U937 cells at 4 hr” value in series [1] is recorded as “− (− <30%)”. In series [1], the “Cell Viability MTT Assay in D-U937 cells at 24 hr” value was “− (− <30%)”.
